According to US20210002725A1, “METHODS FOR THE DIAGNOSIS OF METABOLIC DISORDERS USING EPIMETABOLIC SHIFTERS, MULTIDIMENSIONAL INTRACELLULAR MOLECULES, OR ENVIRONMENTAL INFLUENCES” (Berg LLC, priority 2009, published 2021):

How the values were obtained:
[1] = system: SK-MEL-28 mitochondria; assay: LC-MS/MS quantification of Q10 and Q10H2 in mitochondrial enriched samples; type: cell-based; conditions: for Peak Area Q10: 20% injection
Method: Ten μl of each sample was injected.

[2] = system: HASMC cells; assay: Mitochondria PCR arrays in cell model for diabetes; type: cell-based, human; conditions: HASMC-(H) 22 mM glucose
Method: (§1) The HK-2 and HASMC cells are normally maintained in culture at 5.5 mM glucose, which is a concentration that corresponds to a range considered normal in human blood. However, in order to simulate a diabetic environment, both cell lines were subsequently maintained at 22 mM glucose, which corresponds to the range observed in human blood associated with chronic hyperglycemia. The cells were subsequently allowed to propagate over 3 passages so that the intracellular regulation processes were functionally adapted to mimic a diabetic state. The choice of cell line was based on the physiologic influence of diabetes on renal dysfunction and progression to end-stage renal disease (ESRD) in addition to the progressive pathophysiology of a compromised cardiovascular function.
(§2) Differential expression of mitochondrial genes in diabetes was assayed using the mitochondria arrays (Cat#PAHS 087E, SABisociences Frederick Md.).

[3] = system: HK-2 cells; assay: Mitochondria PCR arrays in cell model for diabetes; type: cell-based, human; conditions: HK-2(H) 22 mM glucose
Method: as §1, §2

[4] = system: variety of cell types; assay: Western blot analysis (Bcl-xL, Vimentin, oxidative phosphorylation complexes, mitochondrial membrane integrity proteins); type: cell-based; conditions: 50 or 100 μM Q10
Method: Approximately 50 μg of protein were assayed per sample by immunoblotting. All treatments were run in triplicate with controls. […] The primary antibodies were incubated overnight at 4 degrees C. in a 5% BSA and TBST solution. Secondary antibodies were incubated for one hour at 4 degrees. All antibodies were purchased from Cell Signaling Technology. Antibodies were used at a ratio of 1:1000, with the exception of βActin at a ratio of 1:5000. Blots were developed and results were quantified using the NIH Java based densitometer analysis software Image J. All blots were also probed for and normalized to their respective βActin expression.
The first experiment processed and evaluated by Western blot and 2-D gel electrophoresis was carried out on the skin cancer cell line SKMEL-28.
A variety of cell types were evaluated by Western blot analysis against an antibody for Bcl-xL (FIG. 14), an antibody for Vimentin (FIG. 15), a series of antibodies for mitochondrial oxidative phosphorylation function (FIGS. 16-21) and against a series of antibodies related to mitochondrial membrane integrity (FIGS. 22-27).

[5] = system: Succinate Dehydrogenase B (SDHB); assay: Western blot of Succinate Dehydrogenase subunit B in mitochondrial preparations; type: cell-based; conditions: mitochondrial preparations of cancer cells
Method: The above blots were stripped by incubating for 30 minutes with methanol, followed by two 10 minute washes with TBS-T, then 30 minutes of incubation with Stripping buffer at 50 deg C., and followed by two washes with 100 ml or more of TBS-T for 30′ each. The blots were scanned in laser scanner to check for complete stripping. The blots were activated with methanol for 5 seconds, washed with water for 5 minutes, and TBST for 15 minutes. The blots were blocked for 1 hour with 5% blocking reagent in TBS-T at room temperature and then washed 3 times with TBS-T (1×-15′; 2×5′ each) and probed with the primary antibody for PKM2, SDHB or SDHC in 5% BSA in TBS-T by incubation overnight at 4 deg C. with gentle shaking. The primary antibody for SDHC (ABNOVA H00006391-M02; antimouse) was at 1:500 dilution. The primary antibody for SDHB was from Abcam ab4714-200; antimouse; at 1:1000 dilution. The primary antibody for Pyruvate Kinase M2 (PKM2) was from Novus Biologicals H00005315-DOIP; antirabbit; at 1:500 dilution. After incubation with primary antibodies, the membranes were washed 3 times with TBS-T (1×-15′; 2×5′ each) and probed with the secondary antibody (SDHB & C antimouse; and PKM2 antirabbit; 1:10,000 dilution) for 1 hon the orbital tilting shaker at room temperature. […]

[6] = system: HepG2 (liver cancer) cells; assay: Real-time PCR Diabetes Array; type: cell-based; conditions: for genes regulated in the Diabetes Arrays: 100 μM
Method: The treatment was initiated on 1×10^5 cells per well, following the procedure utilized in the PaCa2 cells (above, Examples 9-11). However, the total amount of RNA that was extracted from these samples was lower than expected. Reverse transcription is normally done using 1 μg of total RNA (determined by measurement at 260 nm).

[7] = system: HepG2 (liver cancer) cells; assay: Real-time PCR Apoptosis Array; type: cell-based

In the case of COC1=C(OC)C(=O)C(C/C=C(\C)CC/C=C(\C)CC/C=C(\C)CC/C=C(\C)CC/C=C(\C)CC/C=C(\C)CC/C=C(\C)CC/C=C(\C)CC/C=C(\C)CCC=C(C)C)=C(C)C1=O [Q10, Coenzyme Q10], the “increase in mitochondrial Q10 levels” value ([1]; 100 μM Q10, 19 hours, vs untreated) is reported as roughly 3 fold, the “increase in mitochondrial Q10H2 levels” value ([1]; 100 μM Q10, 48 hour sample, near detection limit) is reported as 3 fold and the “Peak Area Q10” value ([1]; 100 μM Q10 in the media, 6 hr) is reported as 25427. The “Peak Area Q10” value ([1]; 100 μM Q10 in the media, 19 hr) was 59164, the “Q10H2 (reduced form) in mitochondrial enriched sample” value ([1]; 100 μM Q10 in the media, 48 hr) was 0.28 ng/Sample and the “Peak Area Q10” value ([1]; 100 μM Q10 in the media, 48 hr) was 164496. The “form of Q10 in mitochondria (oxidized vs reduced)” value ([1]; exogenous addition of Q10 to the media) was “maintained in the supplied oxidized form”, the “BCL2L1 gene regulation (mitochondria array)” value ([2]; 50 uM Coenzyme Q10) was −2.7863 and the “MFN1 gene regulation (mitochondria array)” value ([2]; 50 uM Coenzyme Q10) was −1.2585. For the same compound, the “PMAIP1 gene regulation (mitochondria array)” value ([2]; 50 uM Coenzyme Q10) was −6.8132, the “SLC25A1 gene regulation (mitochondria array)” value ([2]; 50 uM Coenzyme Q10) was −1.834 and the “SLC25A13 gene regulation (mitochondria array)” value ([2]; 50 uM Coenzyme Q10) was −1.5. The “SLC25A19 gene regulation (mitochondria array)” value ([2]; 50 uM Coenzyme Q10) was −1.4257, the “SLC25A22 gene regulation (mitochondria array)” value ([2]; 50 uM Coenzyme Q10) was −1.9839 and the “TIMM44 gene regulation (mitochondria array)” value ([2]; 50 uM Coenzyme Q10) was −2.3214. For the same compound, the “TOMM40 gene regulation (mitochondria array)” value (“TOMM40 gene regulation” for short) ([2]; 50 uM Coenzyme Q10) was −2.0922, the “TSPO gene regulation (mitochondria array)” value (shortened to “TSPO gene regulation”) ([2]; 50 uM Coenzyme Q10) was −2.0586 and the “BCL2L1 gene regulation (mitochondria array)” value ([2]; 100 μM Coenzyme Q10) was −2.3001. For the same compound, the “MFN1 gene regulation (mitochondria array)” value ([2]; 100 μM Coenzyme Q10) was −2.2632, the “PMAIP1 gene regulation (mitochondria array)” value ([2]; 100 μM Coenzyme Q10) was −4.352 and the “SLC25A1 gene regulation (mitochondria array)” value ([2]; 100 μM Coenzyme Q10) was −3.0001. For the same compound, the “SLC25A13 gene regulation (mitochondria array)” value ([2]; 100 μM Coenzyme Q10) was −1.5245, the “SLC25A19 gene regulation (mitochondria array)” value ([2]; 100 μM Coenzyme Q10) was −2.1214 and the “SLC25A22 gene regulation (mitochondria array)” value ([2]; 100 μM Coenzyme Q10) was −10.3747. The “TIMM44 gene regulation (mitochondria array)” value ([2]; 100 μM Coenzyme Q10) was −1.9931, the “TOMM40 gene regulation” value ([2]; 100 μM Coenzyme Q10) was −2.2684 and the “TSPO gene regulation” value ([2]; 100 μM Coenzyme Q10) was −2.3647. The “GRPEL1 gene regulation (mitochondria array)” value ([3]; 50 μM Coenzyme Q10) was −2.6512, the “SLC25A3 gene regulation (mitochondria array)” value ([3]; 50 μM Coenzyme Q10) was −8.2059 and the “TOMM40 gene regulation” value ([3]; 50 μM Coenzyme Q10) was −1.1567. For the same compound, the “TSPO gene regulation” value ([3]; 50 μM Coenzyme Q10) was −6.7583, the “GRPEL1 gene regulation (mitochondria array)” value ([3]; 100 μM Coenzyme Q10) was −1.933 and the “SLC25A3 gene regulation (mitochondria array)” value ([3]; 100 μM Coenzyme Q10) was −1.6984. The “TOMM40 gene regulation” value ([3]; 100 μM Coenzyme Q10) was −1.9509, the “TSPO gene regulation” value ([3]; 100 μM Coenzyme Q10) was −2.1104 and the “levels of examined proteins (Western blot)” value [4] was “several of the examined proteins were upregulated or downregulated”. For the same compound, the “SDH protein levels in the mitochondrion” value [5] was “increase SDH protein levels”, the PPARGC1A downregulation ([6]; 100 μM Q10, 16 hours) was “approximately 20 fold” and the PRKAA1 downregulation ([6]; 100 μM Q10, 16 hours) was roughly 6 fold. The SNAP25 downregulation ([6]; 100 μM Q10, 16 hours) was roughly 5 fold, the PPARGC1A regulation ([6]; 100 μM Q10, 48 hours) was “normalized or were slightly upregulated” and the PRKAA1 regulation ([6]; 100 μM Q10, 48 hours) was “normalized or were slightly upregulated”. For the same compound, the SNAP25 downregulation ([6]; 100 μM Q10, 48 hours) was “approximately 2 fold”, the “genes regulated in the Diabetes Arrays” value ([6]; PPARGC1A gene) was “PPARGC1A” and the “genes regulated in the Diabetes Arrays” value ([6]; PRKAA1 gene) was “PRKAA1”. The “genes regulated in the Diabetes Arrays” value ([6]; SNAP25 gene) was “SNAP25”, the “genes regulated in the Apoptosis Arrays” value ([7]; 100 μM) was “BAG1 and CASP9 and TNFRSF1A” and the “BAG1 downregulation over control” value ([7]; 100 uM Q10, 16 hours) was “approximately 6 fold”. The “CASP9 upregulation over control” value ([7]; 100 uM Q10, 16 hours) was “approximately 61 fold”, the “TNFRSF1A downregulation over control” value ([7]; 100 uM Q10, 16 hours) was roughly 4 fold and the “BAG1 upregulation over control” value ([7]; 100 uM Q10, 48 hours) was roughly 1 fold. For the same compound, the “CASP9 upregulation over control” value ([7]; 100 uM Q10, 48 hours) was “approximately 55 fold” and the “TNFRSF1A upregulation over control” value ([7]; 100 uM Q10, 48 hours) was roughly 1 fold.
